Experimental data: PubChem BioAssay AID1259407 (Chemical Carcinogenesis Research Information System (CCRIS), 2018)
Active and inactive are the calls of the source. No rule for the calls is given here.

Tested on: CCRIS mutagenicity, Ames/micronucleus/aberration tests
Test: CCRIS mutagenicity studies
[1] = Test System: AMES SALMONELLA TYPHIMURIUM, Strain/Indicator: TA98, Metabolic Activation: NONE, Method: STANDARD PLATE
[2] = Test System: AMES SALMONELLA TYPHIMURIUM, Strain/Indicator: TA100, Metabolic Activation: NONE, Method: STANDARD PLATE
[3] = Test System: AMES SALMONELLA TYPHIMURIUM, Strain/Indicator: TA1535, Metabolic Activation: NONE, Method: STANDARD PLATE
[4] = Test System: AMES SALMONELLA TYPHIMURIUM, Strain/Indicator: TA1537, Metabolic Activation: NONE, Method: STANDARD PLATE
[5] = Test System: AMES SALMONELLA TYPHIMURIUM, Strain/Indicator: TA1538, Metabolic Activation: NONE, Method: STANDARD PLATE
[6] = Test System: AMES SALMONELLA TYPHIMURIUM, Strain/Indicator: TA100, Metabolic Activation: RAT, LIVER, S-9, AROCLOR 1254, Method: STANDARD PLATE

## COc1cccc2c(NCCCNCCCl)c3ccccc3nc12
[1]
  mutagenic call: active; positive
[2]
  mutagenic call: active; positive
[3]
  mutagenic call: inactive; negative
Test System: AMES SALMONELLA TYPHIMURIUM, Strain/Indicator: TA1536, Metabolic Activation: NONE, Method: STANDARD PLATE
  mutagenic call: active; positive
[4]
  mutagenic call: active; positive
[5]
  mutagenic call: active; positive

## CCOc1ccc(NO)cc1
Test System: AMES SALMONELLA TYPHIMURIUM, Strain/Indicator: TA100(NR), Metabolic Activation: NONE, Method: PREINCUBATION
  mutagenic call: inactive; negative
Test System: AMES SALMONELLA TYPHIMURIUM, Strain/Indicator: TA100(NR), Metabolic Activation: NONE, Method: STANDARD PLATE
  mutagenic call: inactive; negative
Test System: AMES SALMONELLA TYPHIMURIUM, Strain/Indicator: TA100, Metabolic Activation: HAMSTER, LIVER, S-9, KANECHLOR 400, Method: PREINCUBATION
  mutagenic call: active; positive
[2]
  mutagenic call: inactive; negative
Test System: AMES SALMONELLA TYPHIMURIUM, Strain/Indicator: TA100TN5-1,8-DNP1011, Metabolic Activation: NONE, Method: PREINCUBATION
  mutagenic call: inactive; negative
Test System: AMES SALMONELLA TYPHIMURIUM, Strain/Indicator: TA100TN5-1,8-DNP1011, Metabolic Activation: NONE, Method: STANDARD PLATE
  mutagenic call: inactive; negative
Test System: AMES SALMONELLA TYPHIMURIUM, Strain/Indicator: TA100TN5-1,8-DNP1012, Metabolic Activation: NONE, Method: PREINCUBATION
  mutagenic call: inactive; negative
Test System: AMES SALMONELLA TYPHIMURIUM, Strain/Indicator: TA100TN5-1,8-DNP1012, Metabolic Activation: NONE, Method: STANDARD PLATE
  mutagenic call: inactive; negative
Test System: AMES SALMONELLA TYPHIMURIUM, Strain/Indicator: YG1026, Metabolic Activation: NONE, Method: PREINCUBATION
  mutagenic call: active; positive
Test System: AMES SALMONELLA TYPHIMURIUM, Strain/Indicator: YG1029, Metabolic Activation: NONE, Method: PREINCUBATION
  mutagenic call: active; positive
Test System: AMES SALMONELLA TYPHIMURIUM, Strain/Indicator: YG1042, Metabolic Activation: NONE, Method: PREINCUBATION
  mutagenic call: active; positive

## Cc1cn2c([N+](=O)[O-])c(-c3ccc([N+](=O)[O-])cc3)nc2s1
[1]
  mutagenic call: active; positive
[2]
  mutagenic call: active; positive
[3]
  mutagenic call: active; positive
[4]
  mutagenic call: active; positive
[5]
  mutagenic call: active; positive

## Cc1c2ccccc2cc2c1ccc1ccccc12
Test System: AMES SALMONELLA TYPHIMURIUM, Strain/Indicator: TA98, Method: STANDARD PLATE
  mutagenic call: active; positive
Test System: AMES SALMONELLA TYPHIMURIUM, Strain/Indicator: TA100, Metabolic Activation: RAT, INTACT HEPATOCYTES, AROCLOR 1254, Method: PREINCUBATION
  mutagenic call: active; positive
[6]
  mutagenic call: active; positive
Test System: AMES SALMONELLA TYPHIMURIUM, Strain/Indicator: TA100, Metabolic Activation: RAT, LIVER, S-9, PHENOBARBITAL, Method: STANDARD PLATE
  mutagenic call: active; positive
Test System: AMES SALMONELLA TYPHIMURIUM, Strain/Indicator: TA100, Metabolic Activation: RAT, NADPH-FORTIFIED HOMOGENIZED HEPATOCYTES, AROCLOR 1254, Method: PREINCUBATION
  mutagenic call: active; positive
Test System: AMES SALMONELLA TYPHIMURIUM, Strain/Indicator: TA100, Metabolic Activation: RAT, SONICATED HEPATOCYTES, AROCLOR 1254, Method: PREINCUBATION
  mutagenic call: active; positive
Test System: AMES SALMONELLA TYPHIMURIUM, Strain/Indicator: TA100, Method: STANDARD PLATE
  mutagenic call: active; positive
Test System: CHINESE HAMSTER V-79, Strain/Indicator: V-79/8-AZAGUANINE, Metabolic Activation: CELL-MEDIATED, Method: STANDARD PLATE
  mutagenic call: active; positive
Test System: CHINESE HAMSTER V-79, Strain/Indicator: V-79/8-AZAGUANINE, Metabolic Activation: NONE, Method: STANDARD PLATE
  mutagenic call: active; positive
Test System: CHINESE HAMSTER V-79, Strain/Indicator: V-79/OUABAIN, Metabolic Activation: CELL-MEDIATED, Method: STANDARD PLATE
  mutagenic call: active; positive

## CC(Br)Br
Test System: AMES SALMONELLA TYPHIMURIUM, Strain/Indicator: TA102, Metabolic Activation: NONE, Method: STANDARD PLATE
  mutagenic call: inactive; negative
Test System: AMES SALMONELLA TYPHIMURIUM, Strain/Indicator: TA2638, Metabolic Activation: NONE, Method: STANDARD PLATE
  mutagenic call: inactive; negative
Test System: E. COLI, Strain/Indicator: WP2 (PKM101), Metabolic Activation: NONE, Method: STANDARD PLATE
  mutagenic call: inactive; negative
Test System: E. COLI, Strain/Indicator: WP2 UVRA (PKM101), Metabolic Activation: NONE, Method: STANDARD PLATE
  mutagenic call: inactive; negative

## O=C(O)Cc1c[nH]c2ccc(O)cc12
Test System: AMES SALMONELLA TYPHIMURIUM, Strain/Indicator: TA100, Metabolic Activation: NONE, Method: PREINCUBATION
  mutagenic call: inactive; negative

## O=C(CCc1ccc(O)cc1)c1c(O)cc(O)cc1O
Test System: AMES SALMONELLA TYPHIMURIUM, Strain/Indicator: TA98, Metabolic Activation: HAMSTER, LIVER, S-9, AROCLOR 1254, Method: STANDARD PLATE
  mutagenic call: inactive; negative
[1]
  mutagenic call: inactive; negative
Test System: AMES SALMONELLA TYPHIMURIUM, Strain/Indicator: TA98, Metabolic Activation: RAT, LIVER, S-9, AROCLOR 1254, Method: STANDARD PLATE
  mutagenic call: inactive; negative
Test System: AMES SALMONELLA TYPHIMURIUM, Strain/Indicator: TA100, Metabolic Activation: HAMSTER, LIVER, S-9, AROCLOR 1254, Method: STANDARD PLATE
  mutagenic call: inactive; negative
[2]
  mutagenic call: inactive; negative
[6]
  mutagenic call: inactive; negative
Test System: AMES SALMONELLA TYPHIMURIUM, Strain/Indicator: TA1535, Metabolic Activation: HAMSTER, LIVER, S-9, AROCLOR 1254, Method: STANDARD PLATE
  mutagenic call: inactive; negative
[3]
  mutagenic call: inactive; negative
Test System: AMES SALMONELLA TYPHIMURIUM, Strain/Indicator: TA1535, Metabolic Activation: RAT, LIVER, S-9, AROCLOR 1254, Method: STANDARD PLATE
  mutagenic call: inactive; negative
Test System: AMES SALMONELLA TYPHIMURIUM, Strain/Indicator: TA1537, Metabolic Activation: HAMSTER, LIVER, S-9, AROCLOR 1254, Method: STANDARD PLATE
  mutagenic call: inactive; negative
[4]
  mutagenic call: inactive; negative
Test System: AMES SALMONELLA TYPHIMURIUM, Strain/Indicator: TA1537, Metabolic Activation: RAT, LIVER, S-9, AROCLOR 1254, Method: STANDARD PLATE
  mutagenic call: inactive; negative
Test System: AMES SALMONELLA TYPHIMURIUM, Strain/Indicator: TA1538, Metabolic Activation: HAMSTER, LIVER, S-9, AROCLOR 1254, Method: STANDARD PLATE
  mutagenic call: inactive; negative
[5]
  mutagenic call: inactive; negative
Test System: AMES SALMONELLA TYPHIMURIUM, Strain/Indicator: TA1538, Metabolic Activation: RAT, LIVER, S-9, AROCLOR 1254, Method: STANDARD PLATE
  mutagenic call: inactive; negative
